From PubChem BioAssay AID652060 (Broad Institute, 2013) come the findings set out here.

The source made the active and inactive calls. No rule for the calls is given here.

Test system in one assay: not listed separately
Nature of the assay: nonspecific luciferase activators in D54 LucT cells, dose response, counter-screen for N-linked glycosylation inhibitor project, cell-based, luminescence, dry powder (AID 652060). Particulars: D54 LucT luciferase counterscreen, luminescence, 24 h; at 19.5 µM (top of the series). (Counterscreens check selectivity or assay interference.)
Take `Cc1ccc(C(=O)c2cc([N+](=O)[O-])ccc2N2CCOCC2)cc1C`: the luciferase activity increase was 66.7% (inactive).

Take `CC(=O)N[C@H]1[C@@H](O[C@@H]2OC(C[C@@H](O)C3O[C@@H](n4ccc(=O)[nH]c4=O)[C@H](O)[C@@H]3O)[C@H](O)[C@H](O)[C@H]2NC(=O)/C=C/CCCCCCCCCCC(C)C)O[C@H](CO)[C@@H](O)[C@@H]1O` (stereo partly specified): the luciferase activity increase is -50% (inactive).

As to `C/C(=N\NC(=O)c1c([N+](=O)[O-])c(C)nn1C)c1ccc(NC(=O)C2CCCC2)cc1`, the luciferase activity increase is 0% (inactive).

With `CCN(CC)CCC(=O)Nc1cccc2c1C(=O)c1ccccc1C2=O`, the luciferase activity increase was -33.3% (inactive).

On to `O=C1CCNc2cc3ccccc3cc21`, for which the luciferase activity increase was -66.7% (inactive).

Consider `CCCCOc1ccccc1C1CC(=O)NC2=C1C(=O)CCC2` (stereo unspecified), for which the luciferase activity increase is 0% (inactive).

On to `COc1ccccc1OCC(=O)NNC(=O)c1ccoc1C`, for which the luciferase activity increase was 33.3% (inactive).

Take `COc1cc(Nc2c3c(nc4ccccc24)CCCC3)cc(OC)c1OC`: the luciferase activity increase is 0% (inactive).

As for `Cc1cc(C)cc(C(=O)N2CC(=O)Nc3ccccc32)c1`, the luciferase activity increase was 33.3% (inactive).

On to `O=C1CCN(Cc2ccccc2)c2cc3ccccc3cc21`, for which the luciferase activity increase is 0% (inactive).

Consider `CCN(CC)CCCNc1nc2cc(OC)c(OC)cc2c2nc(-c3ccccc3)nn12`, for which the luciferase activity increase is -33.3% (inactive).

Turning to `COc1ccc(CSc2nnc(-c3ccccc3)o2)cc1`, the luciferase activity increase is 50% (inactive).

Regarding `COc1ccc(NC(=O)C(=O)c2cn(CC(=O)N3CCCC3)c3ccccc23)cc1`, the luciferase activity increase is -33.3% (inactive).

As to `Cc1ccc(Oc2ccc(S(=O)(=O)N3CCOCC3)cc2C(N)=O)c(-n2nc3ccccc3n2)c1`, the luciferase activity increase is 33.3% (inactive).

As for `Brc1ccc(CSc2nnc(-c3ccccc3)o2)cc1`, the luciferase activity increase was 0% (inactive).

For `Cc1cnc(NC(=O)c2cc(S(=O)(=O)N(C)C)ccc2N2CCCC2)s1`, the luciferase activity increase is 0% (inactive).

As to `CC(=O)c1cccc(NC(=O)CSc2ncc(C(=O)Nc3ccccc3)c(=O)n2C)c1`, the luciferase activity increase was 33.3% (inactive).

On to `COc1cc(C(=O)NCCOc2cc(C)cc(C)c2)cc(OC)c1OC`, for which the luciferase activity increase is 33.3% (inactive).

On to `CCOC(=O)COc1cccc2c(=O)n(CC(=O)NCc3ccccc3)ccc12`, for which the luciferase activity increase is 0% (inactive).

Take `CCOc1ccc(S(=O)(=O)NCc2ccccn2)cc1NC(=O)c1ccccc1F`: the luciferase activity increase is 0% (inactive).

`Cc1ccc(CCC(=O)Nc2ncc(Cc3cc(Cl)ccc3Cl)s2)o1`: the luciferase activity increase is -33.3% (inactive).

For the compound `CC(=O)c1ccc(Oc2cc(C)nc(-n3nc(C)cc3C)n2)cc1`, the luciferase activity increase was 0% (inactive).

As to `COc1ccc2c(COC(=O)c3cccc(S(=O)(=O)NCC(C)C)c3)cc(=O)oc2c1`, the luciferase activity increase is 66.7% (inactive).

For `CCOc1ccc(NC(=O)c2cc(OC)nc3ccccc23)cc1`, the luciferase activity increase is 0% (inactive).

For the compound `Cc1cc(C)nc(/N=C(\N)Nc2ccc(OCc3ccccc3)cc2)n1`, the luciferase activity increase was -33.3% (inactive).

For the compound `Cc1cc(NC(=O)CSc2nc(-c3ccco3)cc(C(F)(F)F)n2)no1`, the luciferase activity increase was 0% (inactive).

Regarding `CC(=O)N1CCC(=O)c2cc3ccccc3cc21`, the luciferase activity increase is 33.3% (inactive).

`Cc1[nH][nH]c(=O)c1C(c1ccc(-c2ccc(Cl)c(Cl)c2)o1)c1c(C)[nH][nH]c1=O`: the luciferase activity increase is 0% (inactive).

As to `Cc1cc(=O)[nH]c(N/N=C/c2cc(C)n(CC(F)(F)F)c2C)n1`, the luciferase activity increase was 0% (inactive).

Take `COc1cccc(N2CCN(C(=O)c3ccc(CS(=O)c4ccc(C)cc4)o3)CC2)c1` (stereo unspecified): the luciferase activity increase was 0% (inactive).

As to `Cc1cccc(C)c1OCCNC(=O)C(=O)NCc1ccco1`, the luciferase activity increase is 33.3% (inactive).

As to `CCN(CC)CCOc1ccc2c(c1)C(=NNC(=O)c1ccccn1)c1cc(OCCN(CC)CC)ccc1-2`, the luciferase activity increase is -33.3% (inactive).

As for `CCC1=Nc2cc(C(=O)NCCCOC)ccc2Sc2ccccc21`, the luciferase activity increase was -33.3% (inactive).

`O=C(Cc1ccccc1)c1nnc(-c2ccccc2)o1`: the luciferase activity increase is 33.3% (inactive).

Consider `CCCOC(=O)c1[nH]c2c(c1C)C(=O)CC(c1cccs1)C2` (stereo unspecified), for which the luciferase activity increase was 50% (inactive).

In the case of `CCn1c2ccccc2c2cc(NC(=O)c3cc(OC)c(OC)c(OC)c3)ccc21`, the luciferase activity increase was -33.3% (inactive).

For another assay, the system named is D54 LucT luciferase counterscreen, luminescence, 24 h. The assay is described as above.
Conditions: not given
Turning to `Nc1nc(=S)c2ncn([C@@H]3O[C@H](CO)[C@@H](O)[C@H]3O)c2[nH]1`, the AC40 is 5190 nM.

`COc1ccccc1CSc1nnc(-c2ccccc2)o1`: the AC40 is 845 nM.

As for `Cc1ccc(/C=N/NC(=O)C2COc3ccccc3O2)s1` (stereo unspecified), the AC40 was 15300 nM.

Take `COC(=O)c1cn(C(=O)c2ccc(OC)cc2)c2ccccc12`: the AC40 was 15400 nM.

For `COc1cc(-c2nnc(SCC3(c4ccc(Br)cc4)OCCO3)o2)cc(OC)c1OC`, the AC40 is 930 nM.

Regarding `COc1ccc(-c2nnc(SCc3ccccc3)o2)cc1`, the AC40 was 5120 nM.

Consider `O=C(N/N=C/c1ccc(Cl)cc1)c1sccc1OCc1ccc(F)cc1`, for which the AC40 was 1600 nM.

Regarding `COc1ccccc1-c1nnc(SCc2ccccc2)o1`, the AC40 was 632 nM.

Consider `CCOC(=O)c1ccc(Oc2cc(C)nc(SC)n2)cc1`, for which the AC40 was 3390 nM.

On to `CCCNS(=O)(=O)c1cccc(C(=O)OCc2cc(=O)oc3cc(OC)ccc23)c1`, for which the AC40 is 2140 nM.
